The values below come from ChEMBL document CHEMBL4387748, “Chalcone derivatives bearing chromen or benzo[f]chromen moieties: Design, synthesis, and evaluations of anti-inflammatory, analgesic, selective COX-2 inhibitory activities” (Bioorg Med Chem Lett, 2019).

The test system of test [1] is Mus musculus. In words: Anti-inflammatory activity in mouse assessed as inhibition of xylene-induced ear edema at 30 mg/kg, ip dosed prior to xylene challenge and measured 1 hr post xylene injection relative to control. The format is functional.
Test [2] deals with Mus musculus. In words: Analgesic activity in mouse at 30 mg/kg, ip measured after 60 mins by hot plate technique relative to control. The settings on record: 1 h. The format is functional.
A short description of test [3]: Selectivity index, ratio of IC50 for COX1 (unknown origin) to IC50 for COX2 (unknown origin). The settings on record: Homo sapiens.
Test [4] concerns the target Prostaglandin G/H synthase 1 (Ovis aries) (UniProt P05979).
For test [5], the target named is Prostaglandin G/H synthase 2 (Ovis aries) (UniProt P79208).
Prostaglandin G/H synthase 2 (Ovis aries), sequence (P79208 whole entry, looked up): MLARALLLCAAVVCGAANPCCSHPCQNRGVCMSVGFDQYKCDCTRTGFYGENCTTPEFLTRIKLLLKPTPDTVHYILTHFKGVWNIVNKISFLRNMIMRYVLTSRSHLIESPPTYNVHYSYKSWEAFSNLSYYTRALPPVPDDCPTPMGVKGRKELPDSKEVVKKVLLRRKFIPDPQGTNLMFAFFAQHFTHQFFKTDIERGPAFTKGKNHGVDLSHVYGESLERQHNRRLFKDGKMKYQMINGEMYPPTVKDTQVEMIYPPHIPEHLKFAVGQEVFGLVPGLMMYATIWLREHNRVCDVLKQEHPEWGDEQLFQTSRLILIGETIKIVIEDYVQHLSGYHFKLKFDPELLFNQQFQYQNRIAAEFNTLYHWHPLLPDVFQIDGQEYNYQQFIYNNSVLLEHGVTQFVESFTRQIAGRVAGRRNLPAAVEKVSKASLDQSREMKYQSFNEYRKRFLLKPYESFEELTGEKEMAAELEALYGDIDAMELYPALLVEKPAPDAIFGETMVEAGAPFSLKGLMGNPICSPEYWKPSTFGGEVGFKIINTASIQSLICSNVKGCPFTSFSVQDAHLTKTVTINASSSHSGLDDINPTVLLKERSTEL

In the case of `Cc1ccc(C(=O)/C=C/C2=Cc3ccccc3OC2)cc1C`, the values for the inhibition in vivo at 30 mg/kg in the test with Mus musculus [1] and in the test with Mus musculus [2] were 48.1% and 66.7 to 100%, respectively.

As for `O=C(/C=C/C1=Cc2ccccc2OC1)c1ccccc1Br`, the inhibition in vivo at 30 mg/kg in the test on Mus musculus [1] was 56.6%; in the test with Mus musculus [2], 66.7 to 100%.

Take `O=C(/C=C/C1=Cc2c(ccc3ccccc23)OC1)c1ccc(F)cc1`: the inhibition in vivo at 30 mg/kg was 57.3% with Mus musculus [1] and 96.2 to 100% in the test with Mus musculus [2].

In the case of `COc1ccc(C(=O)/C=C/C2=Cc3c(ccc4ccccc34)OC2)cc1`, the inhibition in vivo at 30 mg/kg with Mus musculus [1] is 79.3%; in the test on Mus musculus [2], 96.2 to 100%. Further, the Ratio IC50 in test [3] is 23.8. The IC50 in test [4] was found to be 9.04 µM; in test [5] it was 0.38 µM.

In the case of `O=C(/C=C/C1=Cc2c(ccc3ccccc23)OC1)c1ccccc1Cl`, the inhibition in vivo at 30 mg/kg was 66.1% with Mus musculus [1] and 96.2 to 100% in the test with Mus musculus [2].

In the case of `Cc1ccc(C(=O)/C=C/C2=Cc3c(ccc4ccccc34)OC2)cc1C`, the inhibition in vivo at 30 mg/kg in the test on Mus musculus [1] was 54.2%; in the test with Mus musculus [2] it was 96.2 to 100%.

Take `Nc1ccc(C(=O)/C=C/C2=Cc3c(ccc4ccccc34)OC2)cc1`: the inhibition in vivo at 30 mg/kg is 67.1% with Mus musculus [1] and 96.2 to 100% with Mus musculus [2].

Turning to `O=C(/C=C/C1=Cc2ccccc2OC1)c1cccc(Br)c1`, the inhibition in vivo at 30 mg/kg is 51.7% in the test on Mus musculus [1] and 66.7 to 100% in the test on Mus musculus [2].

In the case of `O=C(/C=C/C1=Cc2c(ccc3ccccc23)OC1)c1ccccc1F`, the inhibition in vivo at 30 mg/kg with Mus musculus [1] is 73.3%; with Mus musculus [2] it was 96.2 to 100%. The Ratio IC50 in test [3] was 20.7. Also, the values for the IC50 in test [4] and in test [5] were 6.41 µM and 0.31 µM, respectively.

With `COc1ccc(C(=O)/C=C/C2=Cc3ccccc3OC2)cc1OC`, the inhibition in vivo at 30 mg/kg is 67.6% with Mus musculus [1] and 66.7 to 100% with Mus musculus [2]. Besides, the Ratio IC50 in test [3] is 15.4. In addition, the IC50 in test [4] was 7.08 µM; in test [5], 0.46 µM.

Take `Cc1ccc(C(=O)/C=C/C2=Cc3c(ccc4ccccc34)OC2)cc1`: the results for the inhibition in vivo at 30 mg/kg in the test on Mus musculus [1] and with Mus musculus [2] were 74.6% and 96.2 to 100%, respectively.

Take `O=C(/C=C/C1=Cc2ccccc2OC1)c1ccc(Cl)cc1`: the inhibition in vivo at 30 mg/kg is 56.1% in the test on Mus musculus [1] and 66.7 to 100% with Mus musculus [2].

Turning to `O=C(/C=C/C1=Cc2c(ccc3ccccc23)OC1)c1cccc(Cl)c1`, the inhibition in vivo at 30 mg/kg in the test with Mus musculus [1] is 75%; with Mus musculus [2], 96.2 to 100%.

For `COc1ccc2c(c1)c(CC(=O)O)c(C)n2C(=O)c1ccc(Cl)cc1` [INDOMETHACIN], the inhibition in vivo at 30 mg/kg with Mus musculus [1] lay in the range of 64.3 to 82.2%.

Consider `COc1ccc(C(=O)/C=C/C2=Cc3ccccc3OC2)cc1`, for which the values for the inhibition in vivo at 30 mg/kg in the test on Mus musculus [1] and with Mus musculus [2] were 66.2% and 66.7 to 100%, respectively. In addition, in test [3], the Ratio IC50 is 20. The IC50 in test [4] stood at 9.2 µM; in test [5], 0.46 µM.

`O=C(/C=C/C1=Cc2c(ccc3ccccc23)OC1)c1cccc(F)c1`: the inhibition in vivo at 30 mg/kg is 70.1% with Mus musculus [1] and 96.2 to 100% in the test on Mus musculus [2].

As for `O=C(/C=C/C1=Cc2ccccc2OC1)c1ccc(Br)cc1`, the inhibition in vivo at 30 mg/kg in the test on Mus musculus [1] is 66%; in the test with Mus musculus [2], 66.7 to 100%. In addition, the Ratio IC50 in test [3] was 17.2. Moreover, the figures for the IC50 in test [4] and in test [5] were 7.21 µM and 0.42 µM, respectively.

Take `O=C(/C=C/C1=Cc2c(ccc3ccccc23)OC1)c1cccc(Br)c1`: the inhibition in vivo at 30 mg/kg is 67.9% in the test on Mus musculus [1] and 96.2 to 100% in the test with Mus musculus [2].

Turning to `Nc1ccc(C(=O)/C=C/C2=Cc3ccccc3OC2)cc1`, the inhibition in vivo at 30 mg/kg is 52.6% in the test with Mus musculus [1] and 66.7 to 100% in the test on Mus musculus [2].

With `O=C(/C=C/C1=Cc2ccccc2OC1)c1cccc(Cl)c1`, the inhibition in vivo at 30 mg/kg is 51% with Mus musculus [1] and 66.7 to 100% with Mus musculus [2].

Take `CN(C)c1ccc(C(=O)/C=C/C2=Cc3c(ccc4ccccc34)OC2)cc1`: the inhibition in vivo at 30 mg/kg in the test with Mus musculus [1] is 67.2%; in the test on Mus musculus [2], 96.2 to 100%.

Take `O=C(/C=C/C1=Cc2ccccc2OC1)c1ccc(F)cc1`: the inhibition in vivo at 30 mg/kg is 65.6% in the test with Mus musculus [1] and 66.7 to 100% in the test with Mus musculus [2]. The Ratio IC50 in test [3] was 22.5. The figures for the IC50 in test [4] and in test [5] were 8.32 µM and 0.37 µM, respectively.

For `O=C(/C=C/C1=Cc2ccccc2OC1)c1ccccc1Cl`, the values for the inhibition in vivo at 30 mg/kg in the test with Mus musculus [1] and in the test on Mus musculus [2] were 52.3% and 66.7 to 100%, respectively.

Consider `COc1ccc(C(=O)/C=C/C2=Cc3c(ccc4ccccc34)OC2)cc1OC`, for which the inhibition in vivo at 30 mg/kg with Mus musculus [1] was 55.1%; with Mus musculus [2], 96.2 to 100%.

For `O=C(/C=C/C1=Cc2ccccc2OC1)c1ccccc1F`, the inhibition in vivo at 30 mg/kg with Mus musculus [1] is 64.4%; in the test on Mus musculus [2] it was 66.7 to 100%.

For the molecule `O=C(/C=C/C1=Cc2c(ccc3ccccc23)OC1)c1ccc(C(F)(F)F)cc1`, the results for the inhibition in vivo at 30 mg/kg in the test with Mus musculus [1] and in the test with Mus musculus [2] were 83.6% and 100%, respectively. Besides, in test [3], the Ratio IC50 was found to be 26.1. Further, the figures for the IC50 in test [4] and in test [5] were 8.63 µM and 0.33 µM, respectively.

In the case of `O=C(/C=C/C1=Cc2c(ccc3ccccc23)OC1)c1ccc([N+](=O)[O-])cc1`, the inhibition in vivo at 30 mg/kg with Mus musculus [1] was found to be 76.3%; with Mus musculus [2], 100%. Further, the Ratio IC50 in test [3] is 31.1. Further, the IC50 in test [4] was 7.77 µM; in test [5] it was 0.25 µM.

For the molecule `CN(C)c1ccc(C(=O)/C=C/C2=Cc3ccccc3OC2)cc1`, the inhibition in vivo at 30 mg/kg was 57.3% in the test on Mus musculus [1] and 66.7 to 100% in the test on Mus musculus [2].

`Cc1ccc(C(=O)/C=C/C2=Cc3ccccc3OC2)cc1`: the inhibition in vivo at 30 mg/kg in the test on Mus musculus [1] was 53.1%; in the test with Mus musculus [2], 66.7 to 100%.

As for `O=C(/C=C/C1=Cc2c(ccc3ccccc23)OC1)c1ccccc1Br`, the inhibition in vivo at 30 mg/kg in the test on Mus musculus [1] was 79.8%; in the test with Mus musculus [2], 96.2 to 100%.

For `O=C(/C=C/C1=Cc2ccccc2OC1)c1ccc(Cl)cc1Cl`, the inhibition in vivo at 30 mg/kg in the test with Mus musculus [1] is 53.3%; in the test on Mus musculus [2], 66.7 to 100%.

Regarding `CCc1ccc(C(=O)/C=C/C2=Cc3c(ccc4ccccc34)OC2)cc1`, the inhibition in vivo at 30 mg/kg in the test on Mus musculus [1] was 83.1%; in the test with Mus musculus [2] it was 96.2 to 100%. Besides, in test [3], the Ratio IC50 came out at 20.7. Further, the figures for the IC50 in test [4] and in test [5] were 8.89 µM and 0.43 µM, respectively.

Regarding `O=C(/C=C/C1=Cc2c(ccc3ccccc23)OC1)c1ccc(Cl)cc1Cl`, the inhibition in vivo at 30 mg/kg came to 84.1% in the test with Mus musculus [1] and 100% in the test with Mus musculus [2]. In test [3], the Ratio IC50 came out at 27.3. Further, the 50% inhibitory concentration (IC50) was 7.92 µM in test [4] and 0.29 µM in test [5].

For the molecule `CCc1ccc(C(=O)/C=C/C2=Cc3ccccc3OC2)cc1`, the figures for the inhibition in vivo at 30 mg/kg with Mus musculus [1] and in the test on Mus musculus [2] were 68.1% and 66.7 to 100%, respectively. In addition, the Ratio IC50 in test [3] was 15.9. Further, the IC50 in test [4] was determined as 6.22 µM; in test [5], 0.39 µM.

Regarding `O=C(/C=C/C1=Cc2c(ccc3ccccc23)OC1)c1ccc(Cl)cc1`, the inhibition in vivo at 30 mg/kg with Mus musculus [1] was 67.1%; in the test on Mus musculus [2], 96.2 to 100%.

With `O=C(/C=C/C1=Cc2ccccc2OC1)c1cccc(F)c1`, the inhibition in vivo at 30 mg/kg in the test on Mus musculus [1] was 52.4%; in the test on Mus musculus [2], 66.7 to 100%.

Turning to `O=C(/C=C/C1=Cc2ccccc2OC1)c1ccc(C(F)(F)F)cc1`, the inhibition in vivo at 30 mg/kg was 75.5% in the test with Mus musculus [1] and 100% with Mus musculus [2]. The Ratio IC50 in test [3] is 9.34. Besides, the values for the IC50 in test [4] and in test [5] were 7.75 µM and 0.83 µM, respectively.

For the molecule `O=C(/C=C/C1=Cc2c(ccc3ccccc23)OC1)c1ccc(Br)cc1`, the inhibition in vivo at 30 mg/kg with Mus musculus [1] is 57.5%; with Mus musculus [2], 96.2 to 100%.

Regarding `O=C(/C=C/C1=Cc2ccccc2OC1)c1ccc([N+](=O)[O-])cc1`, the inhibition in vivo at 30 mg/kg in the test with Mus musculus [1] worked out at 50.8%; in the test with Mus musculus [2] it was 85.1%.
